Patent US11203575B2, “Methhod for producing a crystalline form of 5-amino-2,3-dihydrophthalazine-1,4-dione” (METRIOPHARM AG, priority 2016, dated 2021)

Source text: FIG. 5: TG-DSC diagram of crystalline form of 5-amino-2,3-dihydro-1,4-phthalazinedione produced by the method according to the invention. Upper trace: Mass loss determined by TG. Lower trace: Heat flow determined by DSC

thermal stability up to (simultaneous TG and DSC, solid crystalline form (FIG. 5)): up to 328±1 °C
SMILES: Nc1cccc2c(=O)[nH][nH]c(=O)c12 [crystalline form of luminol, 5-amino-2,3-dihydrophthalazine-1,4-dione]
solid state transformation to other forms (TG-DSC, until thermal degradation of the crystalline compound sets in (FIG. 5)): no solid state transformation to other forms is observed
